Assays:
[1] = molecular target: T1, M4 (Rattus norvegicus, UniProt P08485); test: rat M4 binding affinity (evaluated by Pfizer); settings: identified and evaluated by Pfizer
T1 sequence (P08485 1-478): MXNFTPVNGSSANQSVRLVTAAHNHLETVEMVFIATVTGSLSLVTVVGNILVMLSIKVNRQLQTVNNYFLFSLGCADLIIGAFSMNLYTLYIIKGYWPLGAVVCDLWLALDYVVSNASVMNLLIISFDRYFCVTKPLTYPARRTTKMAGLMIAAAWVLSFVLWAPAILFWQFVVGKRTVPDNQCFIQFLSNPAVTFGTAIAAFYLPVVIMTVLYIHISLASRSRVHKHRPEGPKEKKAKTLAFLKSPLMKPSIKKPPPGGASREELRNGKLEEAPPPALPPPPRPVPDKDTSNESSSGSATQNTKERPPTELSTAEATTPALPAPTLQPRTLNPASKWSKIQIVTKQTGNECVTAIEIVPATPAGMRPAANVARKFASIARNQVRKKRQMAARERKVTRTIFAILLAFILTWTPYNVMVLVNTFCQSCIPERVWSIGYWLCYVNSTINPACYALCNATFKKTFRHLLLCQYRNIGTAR

[2] = molecular target: T2, M4 (Homo sapiens, UniProt P08173); test: human M4 binding affinity (evaluated by Pfizer); settings: identified and evaluated by Pfizer
T2 sequence (P08173 1-479): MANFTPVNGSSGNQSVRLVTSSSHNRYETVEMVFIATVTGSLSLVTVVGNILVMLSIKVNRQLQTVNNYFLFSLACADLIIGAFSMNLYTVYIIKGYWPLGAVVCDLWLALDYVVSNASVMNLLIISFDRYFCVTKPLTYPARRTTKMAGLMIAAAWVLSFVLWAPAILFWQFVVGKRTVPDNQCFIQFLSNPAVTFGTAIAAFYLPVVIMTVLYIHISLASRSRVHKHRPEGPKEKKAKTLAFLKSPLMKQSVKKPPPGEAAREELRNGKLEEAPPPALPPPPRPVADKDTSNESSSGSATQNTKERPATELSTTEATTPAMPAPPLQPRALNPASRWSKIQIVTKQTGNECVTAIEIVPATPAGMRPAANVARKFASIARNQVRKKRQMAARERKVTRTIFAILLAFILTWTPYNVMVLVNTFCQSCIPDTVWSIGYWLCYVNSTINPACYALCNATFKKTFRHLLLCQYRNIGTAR

Ki [1]: 7.15 nM
Ki [2]: 0.16 nM
Compound: CNc1nc(C)c(C)c2c1CN(C(=O)C[C@H]1C[C@@H]1c1ccc(F)nc1)C2 [PF06885190, 1-(6,7-dimethyl-4-(methylamino)-1,3-dihydro-2H-pyrrolo [3,4-c]pyridin-2-yl)-2-((1R,2S)-2-(6-fluoropyridin-3-yl)cyclopropyl)ethan-1-one]
